Assays:
[1] = test system: NF-KB activation; details: cited from earlier work; for tumor necrosis factor a (TNF-a)-induced NF-KB activation: similar dose of both compounds
[2] = test system: Akt; details: cited from earlier work
[3] = test system: IKBa kinase (IKK); details: cited from earlier work
[4] = per day; Food and Nutrition Board of the Institute of Medicine; also printed as 1,500 IU; cited from earlier work
[5] = target: T1, HMG-CoA reductase (Homo sapiens, UniProt P04035); details: micromolar amounts; cited from earlier work
T1 sequence (P04035 1-888): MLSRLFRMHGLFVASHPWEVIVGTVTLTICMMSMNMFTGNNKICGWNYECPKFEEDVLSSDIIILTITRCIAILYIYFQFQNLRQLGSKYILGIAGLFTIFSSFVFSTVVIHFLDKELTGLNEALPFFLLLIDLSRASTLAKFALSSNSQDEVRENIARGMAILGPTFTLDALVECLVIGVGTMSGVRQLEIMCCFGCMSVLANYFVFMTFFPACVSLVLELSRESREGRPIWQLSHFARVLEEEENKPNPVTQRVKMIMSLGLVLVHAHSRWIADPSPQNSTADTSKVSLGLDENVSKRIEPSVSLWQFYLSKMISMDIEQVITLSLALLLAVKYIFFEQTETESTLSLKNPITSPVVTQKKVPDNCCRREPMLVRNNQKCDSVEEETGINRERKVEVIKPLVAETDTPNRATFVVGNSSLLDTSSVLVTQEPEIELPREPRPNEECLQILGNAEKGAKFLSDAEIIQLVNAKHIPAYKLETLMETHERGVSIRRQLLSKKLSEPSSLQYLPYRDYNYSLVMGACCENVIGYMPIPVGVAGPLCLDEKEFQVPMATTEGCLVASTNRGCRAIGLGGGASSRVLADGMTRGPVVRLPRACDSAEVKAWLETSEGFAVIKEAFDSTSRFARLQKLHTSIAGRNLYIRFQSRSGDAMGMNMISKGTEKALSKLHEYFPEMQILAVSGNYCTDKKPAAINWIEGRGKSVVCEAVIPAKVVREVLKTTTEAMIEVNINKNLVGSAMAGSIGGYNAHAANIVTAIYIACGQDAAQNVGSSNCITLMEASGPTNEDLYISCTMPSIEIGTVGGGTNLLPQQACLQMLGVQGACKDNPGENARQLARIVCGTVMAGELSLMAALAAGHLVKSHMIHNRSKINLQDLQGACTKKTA

[6] = Ongoing IRB protocol 200500034, oral TCT supplementation before surgery; format: in vivo, human
Method: In this protocol, patients are being supplemented 200 mg TCT twice a day for a minimum of 4 weeks prior to surgery. The maximum supplementation has been for over a year (currently on-going supplementation)
(§1) The inventors have also observed that oral supplementation in animals results in enhancement of tocotrienol in tissues such as skin, brain, lung etc. Levels of tocotrienol in human tissues following supplementation is currently being investigated by the inventors' laboratory (IRB protocol 200500034). The patients in the inventors' ongoing study are being orally supplemented with 200 mg twice a day. Recently, pharmacokinetic studies have been performed where humans have been orally supplemented with tocotrienol (dose: 692 mg). Based on this work and the inventors' current study, the inventors plan to use (200×2=400 mg/day; note that for alpha-tocopherol 1 mg=1.51 U) for the inventors' study.
In this protocol, patients are being supplemented 200 mg TCT twice a day for a minimum of 4 weeks prior to surgery.
In this protocol, patients are being supplemented 200 mg TCT twice a day for a minimum of 4 weeks prior to surgery. The maximum supplementation has been for over a year (currently on-going supplementation).

[7] = Alpha-tocotrienol content in burn scar tissue (FIG. 1B); format: in vivo; details: topical treatment vs placebo; skin 65 days after burn injury; n=8; p<0.05
Method: (§2) FIG. 1A-FIG. 1D. Topical vitamin E alpha-tocotrienol improves scar outcome. Alpha-tocotrienol content and scar outcomes were assessed in skin 65 days after burn injury. Representative placebo and T3-treated burn scars depicted (A) (scale bar=1 cm). […] Color (C) and contour (D) were judged by blinded reviewers according to their respective 5-point scales. […] Data are mean+SD (n=8); *p<0.05.

[8] = test system: IL-1 and IL-6 in serum; details: treated rats; vs before nicotine and tocotrienol treatment; cited from earlier work
[9] = test system: burn-induced scar; assay: Burn-induced scar outcome after topical tocotrienol (FIG. 1); format: in vivo; details: topical treatment vs placebo; 65 days after burn injury; n=8; p<0.05
Method: as §2

[10] = Oral tocotrienol supplementation in animals, tissue levels; format: in vivo
Method: as §1

[11] = test system: adhesion molecules (ICAM, VCAM, and E-selectin); details: compared among forms of vitamin E; cited from earlier work

**Q.** Which results are given for `CC(C)=CCC/C(C)=C/CC/C(C)=C/CC[C@]1(C)CCc2cc(O)c(C)c(C)c2O1` [gamma-tocotrienol]?
**A.** NF-KB activation induced by phorbol myristate acetate, okadaic acid, lipopolysaccharide, cigarette smoke, IL-1I, and epidermal growth factor [1]: abolished; TAK 1/TAB 1-induced NF-KB dependant reporter gene expression [1]: inhibit; constitutive NF-KB activation expressed by certain tumor cells [1]: nullified; tumor necrosis factor a (TNF-a)-induced NF-KB activation [1]: completely abolished; TNF induced Akt activation [2]: inhibit; TNF-induced activation of IKBa kinase (IKK) [3]: inhibiting

**Q.** Which “tumor necrosis factor a (TNF-a)-induced NF-KB activation” value [1] does the source give for `Cc1c(O)cc2c(c1C)O[C@](C)(CCC[C@H](C)CCC[C@H](C)CCCC(C)C)CC2` [gamma-tocopherol] here?
**A.** no effect

**Q.** For `Cc1c(C)c2c(c(C)c1O)CC[C@@](C)(CCC[C@H](C)CCC[C@H](C)CCCC(C)C)O2` [alpha-tocopherol], which “upper tolerable intake level (UL)” value [4] is on record?
**A.** 1,000 mg

**Q.** Which results are given for tocotrienol?
**A.** activity of HMG-CoA reductase [5]: suppress; related adverse effects ([6]; 200 mg TCT twice a day, minimum 4 weeks prior to surgery, maximum over a year): no related adverse affects; reaching the skin ([6]; oral dosage of 400 mg per day): sufficient to reach the skin; appearance of scars ([6]; pre-treatment with TCT, observations from ongoing study): Improves; alpha-tocotrienol content in scar tissue [7]: significantly increased; serum levels of IL-6 [8]: significantly lower; scar color, 5-point scale, blinded reviewers [9]: significantly improved; scar contour, 5-point scale, blinded reviewers [9]: significantly improved; tocotrienol in tissues such as skin, brain, lung [10]: enhancement; reducing endothelial expression of adhesion molecules and adhesion to monocytes [11]: most effective
